According to patent US6479435B1, “Diaryl ethers and processes for their preparation and herbicidal and desiccant compositions containing them” (ISK Americas Incorporated, priority 1997, dated 2002):

Key:
Assay type in all cases: in vivo
[1] = system: upland rice (Oryza sp., var.Tebonnet, RICE); assay: Pre-emerge greenhouse test, crop damage rating; settings: 14 days after application, rating scale 0-100
Summary of the method: (§1)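 Seeds sown in sandy loam mix one day before track-sprayer application of compounds in acetone at 125–1000 g ai/ha (187 l/ha), then surface-watered to incorporate and bottom-watered. Visual rating 14 days after application on a 0–100 scale (0 = no damage, 100 = all plants dead).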

[2] = system: field corn (Zea mays L., var. Dekalb 535, CORN); assay: Pre-emerge greenhouse test, crop damage rating; settings: 14 days after application, rating scale 0-100
Summary of the method: as §1

[3] = system: common ragweed (Ambrosia artemisiifolia L., AMBEL); assay: Post-emerge greenhouse herbicide test, phytotoxicity rating; settings: 14 days after application
Summary of the method: (§2)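 Compounds in acetone with 0.25% v/v non-ionic surfactant were track-sprayed at 187 l/ha over plants at the 2-3 leaf stage, at 63 to 1000 g ai/ha. Pots were bottom-watered. Injury was scored visually 14 days later on a 0-100 scale, where 0 is no damage and 100 is complete plant death.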

[4] = system: soybean (Glycine max L., var. Pella 86, SOY); assay: Post-emerge greenhouse test, crop damage rating; settings: 14 days after application
Summary of the method: as §2

[5] = system: barnyardgrass (Echinochloa crusgalli, ECHCG); assay: Pre-emerge greenhouse herbicide test, phytotoxicity rating; settings: 14 days after application, rating scale 0-100
Summary of the method: as §1

[6] = system: lambsquarters (Chenopodium album, CHEAL); assay: as above; settings: 14 days after application, rating scale 0-100
Summary of the method: as §1

[7] = system: redroot pigweed (Amaranthus retroflexus, AMARE); assay: as above; settings: 14 days after application, rating scale 0-100
Summary of the method: as §1

[8] = system: sicklepod (Cassia obtusifolia, CASOB); assay: as above; settings: 14 days after application, rating scale 0-100
Summary of the method: as §1

[9] = system: green foxtail (Setaria viridis, SETVI); assay: as above; settings: 14 days after application, rating scale 0-100
Summary of the method: as §1

[10] = system: Johnsongrass (Sorghum halepense, SORHA); assay: as above; settings: 14 days after application, rating scale 0-100
Summary of the method: as §1

[11] = system: ivyleaf morningglory (Ipomoea hederacea, IPOHE); assay: as above; settings: 14 days after application, rating scale 0-100
Summary of the method: as §1

[12] = system: common ragweed (Ambrosia artemisiifolia L., AMBEL); assay: as above; settings: 14 days after application, rating scale 0-100
Summary of the method: as §1

[13] = system: large crabgrass (Digitaria sanguinalis, DIGSA); assay: as above; settings: 14 days after application, rating scale 0-100
Summary of the method: as §1

[14] = system: velvetleaf (Abutilon theophrasti, ABUTH); assay: as above; settings: 14 days after application, rating scale 0-100
Summary of the method: as §1

[15] = system: barnyardgrass (Echinochloa crusgalli, ECHCG); assay: Post-emerge greenhouse herbicide test, phytotoxicity rating; settings: 14 days after application
Summary of the method: as §2

[16] = system: lambsquarters (Chenopodium album, CHEAL); assay: as above; settings: 14 days after application
Summary of the method: as §2

[17] = system: redroot pigweed (Amaranthus retroflexus, AMARE); assay: as above; settings: 14 days after application
Summary of the method: as §2

[18] = system: green foxtail (Setaria viridis, SETVI); assay: as above; settings: 14 days after application
Summary of the method: as §2

[19] = system: Johnsongrass (Sorghum halepense, SORHA); assay: as above; settings: 14 days after application
Summary of the method: as §2

[20] = system: ivyleaf morningglory (Ipomoea hederacea, IPOHE); assay: as above; settings: 14 days after application
Summary of the method: as §2

[21] = system: large crabgrass (Digitaria sanguinalis, DIGSA); assay: as above; settings: 14 days after application
Summary of the method: as §2

[22] = system: velvetleaf (Abutilon theophrasti, ABUTH); assay: as above; settings: 14 days after application
Summary of the method: as §2

[23] = system: upland rice (Oryza sp., var.Tebonnet, RICE); assay: Post-emerge greenhouse test, crop damage rating; settings: 14 days after application
Summary of the method: as §2

[24] = system: field corn (Zea mays L., var. Dekalb 535, CORN); assay: Post-emerge greenhouse test, crop damage rating; settings: 14 days after application
Summary of the method: as §2

[25] = system: soybean (Glycine max L., var. Pella 86, SOY); assay: Pre-emerge greenhouse test, crop damage rating; settings: 14 days after application, rating scale 0-100
Summary of the method: as §1

CCOC(=O)C(C)Oc1ccc(Oc2cc(-n3c(=O)n4n(c3=S)CCCC4)c(F)cc2Cl)cc1 (stereo not shown) [Compound 8-11]
crop damage rating RICE ([1]; 125 g ai/ha): 50
crop damage rating RICE ([1]; 500 g ai/ha): 80
crop damage rating CORN ([2]; 125 g ai/ha): 0
crop damage rating CORN ([2]; 500 g ai/ha): 0
AMBEL phytotoxicity rating (0-100) ([3]; 63 g al/ha): 100
AMBEL phytotoxicity rating (0-100) ([3]; 500 g al/ha): 100
SOY crop damage rating (0-100) ([4]; 63 g al/ha): 90
SOY crop damage rating (0-100) ([4]; 500 g al/ha): 100
phytotoxicity rating ECHCG ([5]; 125 g ai/ha): 60
phytotoxicity rating ECHCG ([5]; 500 g ai/ha): 70
phytotoxicity rating CHEAL ([6]; 125 g ai/ha): 100
phytotoxicity rating CHEAL ([6]; 500 g ai/ha): 100
phytotoxicity rating AMARE ([7]; 125 g ai/ha): 100
phytotoxicity rating AMARE ([7]; 500 g ai/ha): 100
phytotoxicity rating CASOB ([8]; 125 g ai/ha): 70
phytotoxicity rating CASOB ([8]; 500 g ai/ha): 60
phytotoxicity rating SETVI ([9]; 125 g ai/ha): 90
phytotoxicity rating SETVI ([9]; 500 g ai/ha): 100
phytotoxicity rating SORHA ([10]; 125 g ai/ha): 70
phytotoxicity rating SORHA ([10]; 500 g ai/ha): 40
phytotoxicity rating IPOHE ([11]; 125 g ai/ha): 70
phytotoxicity rating IPOHE ([11]; 500 g ai/ha): 100
phytotoxicity rating AMBEL ([12]; 125 g ai/ha): 95
phytotoxicity rating AMBEL ([12]; 500 g ai/ha): 100
phytotoxicity rating DIGSA ([13]; 125 g ai/ha): 20
phytotoxicity rating DIGSA ([13]; 500 g ai/ha): 80
phytotoxicity rating ABUTH ([14]; 125 g ai/ha): 100
phytotoxicity rating ABUTH ([14]; 500 g ai/ha): 100
ECHCG phytotoxicity rating (0-100) ([15]; 63 g al/ha): 100
ECHCG phytotoxicity rating (0-100) ([15]; 500 g al/ha): 100
CHEAL phytotoxicity rating (0-100) ([16]; 63 g al/ha): 100
CHEAL phytotoxicity rating (0-100) ([16]; 500 g al/ha): 100
AMARE phytotoxicity rating (0-100) ([17]; 63 g al/ha): 100
AMARE phytotoxicity rating (0-100) ([17]; 500 g al/ha): 100
SETVI phytotoxicity rating (0-100) ([18]; 63 g al/ha): 30
SETVI phytotoxicity rating (0-100) ([18]; 500 g al/ha): 60
SORHA phytotoxicity rating (0-100) ([19]; 63 g al/ha): 90
SORHA phytotoxicity rating (0-100) ([19]; 500 g al/ha): 99
IPOHE phytotoxicity rating (0-100) ([20]; 63 g al/ha): 100
IPOHE phytotoxicity rating (0-100) ([20]; 500 g al/ha): 100
DIGSA phytotoxicity rating (0-100) ([21]; 63 g al/ha): 50
DIGSA phytotoxicity rating (0-100) ([21]; 500 g al/ha): 90
ABUTH phytotoxicity rating (0-100) ([22]; 63 g al/ha): 100
ABUTH phytotoxicity rating (0-100) ([22]; 500 g al/ha): 100
RICE crop damage rating (0-100) ([23]; 63 g al/ha): 40
RICE crop damage rating (0-100) ([23]; 500 g al/ha): 50
CORN crop damage rating (0-100) ([24]; 63 g al/ha): 20
CORN crop damage rating (0-100) ([24]; 500 g al/ha): 95
crop damage rating SOY ([25]; 125 g ai/ha): 20
crop damage rating SOY ([25]; 500 g ai/ha): 30

N#Cc1cc([N+](=O)[O-])ccc1Oc1cc(-n2c(=O)n3n(c2=S)CCCC3)c(F)cc1Cl [Compound 8-12]
crop damage rating RICE ([1]; 125 g ai/ha): 20
crop damage rating RICE ([1]; 500 g ai/ha): 50
crop damage rating CORN ([2]; 125 g ai/ha): 0
crop damage rating CORN ([2]; 500 g ai/ha): 0
AMBEL phytotoxicity rating (0-100) ([3]; 63 g al/ha): 50
AMBEL phytotoxicity rating (0-100) ([3]; 500 g al/ha): 70
SOY crop damage rating (0-100) ([4]; 63 g al/ha): 50
SOY crop damage rating (0-100) ([4]; 500 g al/ha): 60
phytotoxicity rating ECHCG ([5]; 125 g ai/ha): 0
phytotoxicity rating ECHCG ([5]; 500 g ai/ha): 0
phytotoxicity rating CHEAL ([6]; 125 g ai/ha): 100
phytotoxicity rating CHEAL ([6]; 500 g ai/ha): 100
phytotoxicity rating AMARE ([7]; 125 g ai/ha): 90
phytotoxicity rating AMARE ([7]; 500 g ai/ha): 100
phytotoxicity rating CASOB ([8]; 125 g ai/ha): 0
phytotoxicity rating CASOB ([8]; 500 g ai/ha): 0
phytotoxicity rating SETVI ([9]; 125 g ai/ha): 0
phytotoxicity rating SETVI ([9]; 500 g ai/ha): 70
phytotoxicity rating SORHA ([10]; 125 g ai/ha): 0
phytotoxicity rating SORHA ([10]; 500 g ai/ha): 40
phytotoxicity rating IPOHE ([11]; 125 g ai/ha): 0
phytotoxicity rating IPOHE ([11]; 500 g ai/ha): 70
phytotoxicity rating AMBEL ([12]; 125 g ai/ha): 90
phytotoxicity rating AMBEL ([12]; 500 g ai/ha): 90
phytotoxicity rating DIGSA ([13]; 125 g ai/ha): 0
phytotoxicity rating DIGSA ([13]; 500 g ai/ha): 50
phytotoxicity rating ABUTH ([14]; 125 g ai/ha): 95
phytotoxicity rating ABUTH ([14]; 500 g ai/ha): 100
ECHCG phytotoxicity rating (0-100) ([15]; 63 g al/ha): 0
ECHCG phytotoxicity rating (0-100) ([15]; 500 g al/ha): 40
CHEAL phytotoxicity rating (0-100) ([16]; 63 g al/ha): 80
CHEAL phytotoxicity rating (0-100) ([16]; 500 g al/ha): 70
AMARE phytotoxicity rating (0-100) ([17]; 63 g al/ha): 70
AMARE phytotoxicity rating (0-100) ([17]; 500 g al/ha): 100
SETVI phytotoxicity rating (0-100) ([18]; 63 g al/ha): 0
SETVI phytotoxicity rating (0-100) ([18]; 500 g al/ha): 30
SORHA phytotoxicity rating (0-100) ([19]; 63 g al/ha): 0
SORHA phytotoxicity rating (0-100) ([19]; 500 g al/ha): 50
IPOHE phytotoxicity rating (0-100) ([20]; 63 g al/ha): 80
IPOHE phytotoxicity rating (0-100) ([20]; 500 g al/ha): 70
DIGSA phytotoxicity rating (0-100) ([21]; 63 g al/ha): 0
DIGSA phytotoxicity rating (0-100) ([21]; 500 g al/ha): 0
ABUTH phytotoxicity rating (0-100) ([22]; 63 g al/ha): 100
ABUTH phytotoxicity rating (0-100) ([22]; 500 g al/ha): 100
RICE crop damage rating (0-100) ([23]; 63 g al/ha): 0
RICE crop damage rating (0-100) ([23]; 500 g al/ha): 30
CORN crop damage rating (0-100) ([24]; 63 g al/ha): 0
CORN crop damage rating (0-100) ([24]; 500 g al/ha): 0
crop damage rating SOY ([25]; 125 g ai/ha): 0
crop damage rating SOY ([25]; 500 g ai/ha): 0
